{"source": "patent US7122173B2", "about": "“Agent for the treatment of bladder irritative symptoms accompanied by benign prostatic hyperplasia” (Kyowa Hakko Kogyo Co., Ltd., priority 2001, dated 2006)", "key": {"[1]": {"test_system": "slowly-inactivating A-type K^+ channel", "test": "Voltage clamp, slowly-inactivating A-type K+ currents in Fast Blue-labeled capsaicin-sensitive bladder afferent neurons", "type": "cell-based, rat", "conditions": "Compound 1 1.0 × 10^−6 mol/L", "description": "Experiments were performed on adult female Sprague Dawley rats. First and second series of the experiments were performed, respectively, in unidentified DRG neurons and a specific population of DRG neurons innervating the urinary bladder. The population of DRG neurons that innervate the urinary bladder were labeled by retrograde axonal transport of the fluorescent dye, Fast Blue (4% w/v) (Polyloy, Gross Umstadt, Germany), injected into the wall of the bladder in halothane-anesthetized animals 7 days before the dissociation. The dye was injected with a 28 gauge needle at three to six sites on the dorsal surface of the organ (5–6 μL per site, total volume of 20–30 μL). Each injection site was washed with saline to minimize contamination of adjacent organs with the dye.\nFreshly dissociated neurons from DRG were prepared from halothane-anesthetized animals. […]\nDye-labeled primary afferent neurons that innervate the urinary bladder were identified using an inverted phase-contrast microscope (Nikon, Tokyo, Japan) with fluorescent attachments (UV-1A filter; excitation wavelength, 365 nm). […] All recordings were made with an Axopatch-1D patch-clamp amplifier (Axon Instruments, Foster City, Calif.), and data were acquired and analyzed by PCLAMP software (Axon Instruments).\nIn voltage-clamp recordings, outward K^+ currents and inward Na^+ currents were measured. […]"}, "[2]": {"test_system": "rats with partial urethra obstruction", "test": "Increased urinary frequency accompanied by partial bladder outlet obstruction (metabolism cage urination test)", "type": "in vivo, rat", "description": "The test was carried out in accordance with the method of Saito et al. (J. Urol., 150: 1045–1051 (1993)). Male SD rats of 8 to 9 weeks of age (supplied by Japan SLC) were used in the test. Five to seven animals of these rats were put in each metal cage and reared by allowing them to freely take commercially available chow and water, in a rearing room at a room temperature of from 19 to 25° C. and a humidity of from 30 to 70% under illumination for 12 hours (from 7 a.m. to 7 p.m.) per day. Partial urethra obstruction was induced in rats as a model of outlet obstruction mimicking BPH. Each rat was anesthetized by intraperitoneal administration of 50 mg/kg of pentobarbital sodium (Dainippon Pharmaceutical) and placed in dorsal position. The abdomen was cut in a length of about 1 cm by midline incision to expose the bladder, prostate and the urethra. The bladder neck and bladder base were peeled from the prostate, and two surgical sutures (No. 3, Natsume Seisakusho) were passed behind the urethra base. A polyethylene tube (PE-200; Becton Dickinson) was placed along the urethra, and the urethra was mildly double-ligated together with the tube. The ligation was carried out in such a manner that the urethra was not pressed by the polyethylene tube and the sutures were not loosened. The polyethylene tube was pulled out and the urethra was partially obstructed. The incised part of the abdomen was sutured with the surgical suture. Five to seven days after the partial urethra constriction operation, the rats subjected to partial urethra obstruction and those subjected to sham-operation were put in metabolism cages (KN-649, Natsume Seisakusho). For acclimatization, rats were reared for 1 day with free drinking and feeding, and the urination test was started on the next day. Using an electronic force balance (HF-200; A and D), the amount of urination by rats was continuously measured as weight, and -recorded on a thermal array recorder (RTA-1200; Nihon Kohden) via a direct current amplifier (AD-641G; Nihon Kohden). The light period (9 to 18 o'clock) under illumination and the dark period (19 to 4 o'clock) under lights off were used as the data collecting periods, and the number of micturition and the urinary volume during these periods were measured to calculate urinary frequency (frequency of micturition per 9 hours), voided volume per micturition and total urine volume as the measuring parameters. In this case, the voided volume per micturition was calculated by dividing the total urine volume per 9 hours by the urinary frequency per 9 hours. Compound 1 or a solvent (0.5 w/v % aqueous methyl cellulose 400 cP (average viscosity: 400 centipoises) solution) was administered twice on the next day between 8 to 9 o'clock and 18 to 19 o'clock, and the number of micturition and urine volume during 9 to 18 o'clock and 19 to 4 o'clock were measured to obtain measured values similarly to the case of the previous day. In the sham-operation group, the urinary frequency, voided volume per micturition and the total urine volume on the first day of the urination test were compared with those in the urethra obstruction group. The urinary frequency, voided volume per micturition and the total urine volume in each group were calculated as average ±standard error."}, "[3]": {"conditions": "Dark period (active period), after administration"}, "[4]": {"conditions": "Dark period (active period), before administration (baseline of the Compound 1 group)"}, "[5]": {"conditions": "Light period (inactive period), after administration"}, "[6]": {"conditions": "Light period (inactive period), before administration (baseline of the Compound 1 group)"}, "[7]": {"conditions": "rats with partial urethra obstruction"}}, "data": [{"compound": "C[C@](O)(C(=O)Nc1cccc2c1C(=O)c1sccc1CS2(=O)=O)C(F)(F)F", "note": "[Compound 1, (S)-(+)-N-(5,5-dioxido-10-oxo-4,10-dihydrothieno[3,2-c][1]benzothiepin-9-yl)-3,3,3-trifluoro-2-hydroxy-2-methylpropanamide]", "values": [{"measurement": "A-type IK (HP: −120 mV) − (HP: −40 mV), normalized to control", "setting": "[1]", "result": "1.26 ± 0.03"}, {"measurement": "Total urine volume", "setting": "[2]; [3]", "result": "4.83 ± 0.83", "unit": "mL/9 h"}, {"measurement": "Urinary frequency", "setting": "[2]; [3]", "result": "6.7 ± 1.2", "unit": "micturitions/9 h"}, {"measurement": "Voided volume per micturition", "setting": "[2]; [3]", "result": "0.771 ± 0.160", "unit": "mL"}, {"measurement": "Total urine volume", "setting": "[2]; [4]", "result": "3.57 ± 0.57", "unit": "mL/9 h"}, {"measurement": "Urinary frequency", "setting": "[2]; [4]", "result": "10.0 ± 1.3", "unit": "micturitions/9 h"}, {"measurement": "Voided volume per micturition", "setting": "[2]; [4]", "result": "0.362 ± 0.038", "unit": "mL"}, {"measurement": "Total urine volume", "setting": "[2]; [5]", "result": "4.76 ± 0.78", "unit": "mL/9 h"}, {"measurement": "Urinary frequency", "setting": "[2]; [5]", "result": "5.3 ± 0.4", "unit": "micturitions/9 h"}, {"measurement": "Voided volume per micturition", "setting": "[2]; [5]", "result": "0.899 ± 0.127", "unit": "mL"}, {"measurement": "Total urine volume", "setting": "[2]; [6]", "result": "4.80 ± 0.31", "unit": "mL/9 h"}, {"measurement": "Urinary frequency", "setting": "[2]; [6]", "result": "8.7 ± 0.8", "unit": "micturitions/9 h"}, {"measurement": "Voided volume per micturition", "setting": "[2]; [6]", "result": "0.577 ± 0.064", "unit": "mL"}, {"measurement": "Effect on urinary frequency (in words)", "setting": "[2]; [7]", "result": "significantly reduced urinary frequency"}, {"measurement": "Effect on voided volume per micturition (in words)", "setting": "[2]; [7]", "result": "tended to increase voided volume per micturition"}]}]}
